Read-outs that look alike come from different tables or passages of the source.
Biological target: T1, HIV protease (Human immunodeficiency virus type 1 group M subtype B, UniProt P03366)
T1 construct: the predicted size of the protease is 99 amino acids
Assay: HIV protease inhibition, fluorometric RP-HPLC assay with N-dansyl-peptide substrate
Assay type: biochemical
Conditions: for inhibitory potency (in words): comparison by stereochemistry (2S,3S versus 2R,3R) and by hexan-1-olyl versus hexanoate group; for HIV Protease IC50 values of tested Examples (estimated): *Estimated IC50 from the observed inhibition at 10 μM concentration; for IC50 (estimated): estimated from the % inhibition at 10000 nM final; for activity relative to range necessary for therapeutic development: in words
Procedure: Following synthesis, the preferred embodiment compounds were tested for HIV protease inhibition. For in vitro potency testing, the N terminus of substrate amino acid sequences were first dansylated. The amino acid sequences present in such N-dansyl-peptide substrates can include, but are not limited to native proteolytic cleavage site sequences for the HIV gag and pol polyproteins.
The prepared substrates were incubated with HIV protease and compounds of the present invention, under conditions in which the protease is catalytically active. […] Following incubation, aliquots of the incubate were analyzed with reverse phase high performance liquid chromatography (hereinafter "RP-HPLC"). Any uncoverted peptide substrate is resolved from peptide product(s) and then detected by an inline fluorescence monitor. The amount of product formed over a known time interval may then be used to calculate the activity of the enzyme under the specific assay conditions. The amount of fluorescence detected in the eluted peak from HPLC can be related to the amount of peptide in the peak by prior HPLC analysis of standardized samples. The amount of peptide in the pure, standardized samples is determined accurately by amino acid analysis.
Inhibitory potency was assessed, in vitro, according to published procedures in Tamburini et al., 1990, "A Fluorometric Assay for HIV-Protease Activity Using High-Performance Liquid Chromatography", Analytical Biochemistry, 186:363.
HIV-protease was pre-incubated with or without the inhibitor compound at 37° C. and under buffer, ionic strength and pH conditions affording optimal protease activity. An N-dansyl-peptide substrate was then added to the incubation mixture. For example the dansylated substrate could be:
N-Dansyl-Ser-Gln-Asn-Tyr-Pro-Ile-Val (SEQ ID NO: 1)
The incubation mixture was then incubated at 37° C. During the incubation, the substrate is cleaved by the protease at the Tyr-Pro peptide bond to yield N-Dansyl-Ser-Gln-Asn-Tyr (SEQ ID NO: 2). At the end of the incubation (40 min) the reaction was terminated by acidification with TFA, and the amounts of unconverted substrate and fluorescent product were detected and quantified by subsequent RP-HPLC analysis with post column fluorescence detection.
The rate of cleavage of the substrate is quantified from the amount of product formed in the known incubation time. Specific assay conditions were as follows:
Incubations (75 ul) containing the complete system without substrate were preincubated at 37° C. for 15 min prior to initiation of the protease reaction by the addition of 25 ul of stock 400 uM substrtate peptide solution. The initial component concentrations at the start of the reaction were: HIV-protease (20 ul of a dilution sufficient to produce 40 to 60% substrate cleavage in 40 min), dimethyl sulphoxide (5%v/v), N-Dansyl-Ser-Gln-Asn-Tyr- […] (SEQ ID NO: 1) (100 uM), and sodium chloride (3 M) in 150 mM mes buffer pH 6.0. After a further incubation time of 40 min at 37° C. reactions were terminated by the addition of 50 ul of 12% (v/v) tri-flouroacetic acid, and then loaded into the HPLC autosampler for analysis.
Inhibitors were added to the incubation mixtures […] to protease addition before the preincubation, as stock solutions in dimethyl suphoxide, lower concentrations of inhibitor were obtained by serial dilution of the incubation mixture containing the highest inhibitor concentration. The range of inhibitor concentrations were designed to cover the range yielding zero to 100% inhibition of protease activity. Dilution of the HIV-protease activity (so as to achieve an amount of enzyme activity in 20 ul to produce 40 to 60% substrate conversion when added to the incubation) was achieved using the following buffer: 50 mM sodium acetate buffer pH 5.2, 50 mM sodium chloride, 20 mM DL-dithiothreitol, 20% (v/v) glycerol, 0.1% (v/v) triton X-100 and 1.5 M urea. […]

[1] = Table I, NI = no inhibition at 10 μM final concentration, 37 °C, 40 min, pH 6.0, read-out: HIV Protease IC50 values of tested Examples
[2] = Table II, titrated (Dixon plot, inhibitor up to 100-10000 nM), NI = no inhibition (tested at 10000 nM), read-out: IC50 (concentration in the assay incubation which inhibits the HIV protease activity by 50%)

| SMILES | inhibitory potency (in words) | IC50 [1] [µM] | IC50 [2] [µM] | also measured |
| --- | --- | --- | --- | --- |
| CC[C@H](C)[C@H](NC(=O)[C@@H]1CCCN1[C@H](C(=O)OC)[C@H](CC(C)C)NC(=O)OCc1ccccc1)C(=O)NCc1ccccc1 [Example 7, (2S, 3S) N-[methyl 2-(3-carbobenzyloxyamino-5-methyl-hexanoyl)]-Prolyl-Isoleucine N-Benzyl amide] |  | > 10 | > 10 |  |
| CC[C@H](C)[C@H](NC(=O)[C@@H]1CCCN1[C@@H](C(=O)OC)[C@@H](CC(C)C)NC(=O)OCc1ccccc1)C(=O)NCc1ccccc1 [Example 8] |  | > 10 | > 10 |  |
| CC[C@H](C)[C@H](NC(=O)[C@@H]1CCCN1[C@H](CO)[C@H](CC(C)C)NC(=O)OCc1ccccc1)C(=O)NCc1ccccc1 [Example 9, (2S, 3S) N-[2-(3-carbobenzyoxyamino-5-methylhexan-1-olyl)]-Prolyl-Isoleucine N-Benzyl amide] | significant inhibitor potency | 1.9 |  |  |
| CC[C@H](C)[C@H](NC(=O)[C@@H]1CCCN1[C@@H](CO)[C@@H](CC(C)C)NC(=O)OCc1ccccc1)C(=O)NCc1ccccc1 [Example 10] | innactive or poorly active | > 10 | > 10 |  |
| CC[C@H](C)[C@H](NC(=O)[C@@H]1CCCN1[C@H](C(=O)OC)[C@H](CC(C)C)NC(=O)[C@H](CC#N)NC(=O)OCc1ccccc1)C(=O)NCc1ccccc1 [Example 11a] |  | > 10 | > 10 |  |
| CC[C@H](C)[C@H](NC(=O)[C@@H]1CCCN1[C@H](C(=O)OC)[C@H](CC(C)C)NC(=O)[C@H](CC(N)=O)NC(=O)OCc1ccccc1)C(=O)NCc1ccccc1 [Example 11b] |  |  |  | HIV Protease IC50 values of tested Examples (estimated) (Table I): 15 µM; IC50 (estimated) (Table II): 15 µM |
| CC[C@H](C)[C@H](NC(=O)[C@@H]1CCCN1[C@H](CO)[C@H](CC(C)C)NC(=O)[C@H](CC(N)=O)NC(=O)OCc1ccccc1)C(=O)NCc1ccccc1 [Example 12, (2S, 3S) N-[2-(3-(N-carbobenzyloxy-asparaginyl)amino-5-methylhexan-1-olyl)]-Prolyl-Isoleucine N-Benzyl amide] | significant inhibitor potency | 0.125 |  | increase in inhibitory potency by additional Asn residue (Example 12 versus Example 9): 152 fold; activity relative to range necessary for therapeutic development: within the range necessary for therapeutic development |
| CC[C@H](C)[C@H](NC(=O)[C@@H]1CCCN1[C@H](C(=O)OC)[C@H](CC(C)C)NC(=O)[C@H](CC(N)=O)NC(=O)c1ccc2ccccc2n1)C(=O)NCc1ccccc1 [Example 14] |  |  |  | HIV Protease IC50 values of tested Examples (estimated) (Table I): > 50 µM; IC50 (estimated) (Table II): > 50 µM |
| CC[C@H](C)[C@H](NC(=O)[C@@H]1CCCN1[C@@H](C(=O)OC)[C@@H](CC(C)C)NC(=O)[C@H](CC(N)=O)NC(=O)c1ccc2ccccc2n1)C(=O)NCc1ccccc1 [Example 16, (2R, 3R) N-[2 (3-(N-guinaldyl-asparaginyl)amino-5-methyl-hexanoate)]-Prolyl-Isoleucine N-Benzyl amide] |  | > 10 | > 10 |  |

More lines, main results first:

| inhibitory potency (in words) | SMILES | IC50 [1] [µM] | IC50 [2] [µM] | also measured |
| --- | --- | --- | --- | --- |
| significant inhibitor potency | CC[C@H](C)[C@H](NC(=O)[C@@H]1CCCN1[C@H](CO)[C@H](CC(C)C)NC(=O)[C@H](CC(N)=O)NC(=O)c1ccc2ccccc2n1)C(=O)NCc1ccccc1 [Example 15] | 0.035 |  | increase in inhibitory potency by N-quinaldehyde in place of N-carbo-benzyloxy (Example 15 versus Example 12): 3.6 fold; activity relative to range necessary for therapeutic development: within the range necessary for therapeutic development |
| innactive or poorly active | CC[C@H](C)[C@H](NC(=O)[C@@H]1CCCN1[C@@H](CO)[C@@H](CC(C)C)NC(=O)[C@H](CC(N)=O)NC(=O)c1ccc2ccccc2n1)C(=O)NCc1ccccc1 [Example 17, (2R, 3R) N-[2-(3-(N-guinaldyl-asparaginyl)amino-5-methylhexan-1-olyl)]-Prolyl-Isoleucine N-Benzyl amide] |  |  | HIV Protease IC50 values of tested Examples (estimated) (Table I): 15 µM; IC50 (estimated) (Table II): 15 µM |

Reference: patent US5296604A, “Proline derivatives and compositions for their use as inhibitors of HIV protease” (priority 1992, dated 1994)
